The text below walks through data of patent publication US10550093B2, “Third generation taxoids and methods of using same” (The Research Foundation for the State University of New York, priority 2015, dated 2020).

Holding throughout (type): cell-based
The test system of one data set is LCC6-WT. Nature of the data set: Cytotoxicity of third-generation taxoids, LCC6-WT. As to conditions: LCC6-WT cells.
For data set [1], the system named is LCC6-MDR drug resistant (Pgp+) human breast cancer cell line. Nature of the data set: Cytotoxicity of third-generation taxoids, LCC6-MDR. As to conditions: LCC6-MDR cells.
In data set [2] the test system is PANC-1 human pancreatic cancer cell line. Nature of the data set: Cytotoxicity of third-generation taxoids, PANC-1. As to conditions: PANC-1 cells.
For data set [3], the system named is CFPAC-1 human pancreatic cancer cell line. Nature of the data set: Cytotoxicity of third-generation taxoids, CFPAC-1. The following applies: CFPAC-1 cells.
Data set [4] concerns ID8 murine ovarian cancer cell line. Nature of the data set: Cytotoxicity of third-generation taxoids, ID8. The following applies: ID8 cells.
Data set [5] relates to MCF7 human breast cancer cell line. Nature of the data set: Cytotoxicity of third-generation taxoids, MCF7. The following applies: MCF7 cells.
The test system of data set [6] is NCI/ADR drug resistant (Pgp+) human ovarian cancer cell line. Nature of the data set: Cytotoxicity of third-generation taxoids, NCI/ADR. As to conditions: NCI/ADR-RES, NCI/ADR cells.

Usually IC50 stands for the concentration needed to halve the response being measured.

In the case of `C=C(C)CC(NC(=O)OC(C)(C)C)C(O)C(=O)OC1CC2(O)C(OC(=O)c3cccc(OC(F)(F)F)c3)C3C4(OC(C)=O)COC4CC(OC)C3(C)C(=O)C(OC)C(=C1C)C2(C)C` (stereo not shown) [SB-T-1230105, 2-Debenzoyl-2-(3-trifluromethoxybenzoyl)-7,10-dimethyl-3′-dephenyl-3′-(2-methyl-2-propenyl)-docetaxel], the IC50 in the data set with LCC6-WT came out at 550 pM; in data set [1], 6980 pM; in data set [2], 980 pM.
Turning to `C=C(C)CC(NC(=O)OC(C)(C)C)C(O)C(=O)OC1CC2(O)C(OC(=O)c3cccc(OC(F)(F)F)c3)C3C4(OC(C)=O)COC4CC(O)C3(C)C(=O)C(OC(=O)N(C)C)C(=C1C)C2(C)C` (stereo not shown) [SB-T-121605, 2-Debenzoyl-2-(3-trifluromethoxybenzoyl)-3′-dephenyl-10-(N,N-dimethylcarbamoyl)-3′-(2-methyl-2-propenyl)docetaxel], the IC50 in data set [3] amounted to 560 pM; in data set [4] it was 250 pM; in data set [2] it was 540 pM.
As for `C=C(C)CC(NC(=O)OC(C)(C)C)C(O)C(=O)OC1CC2(O)C(OC(=O)c3cccc(OC(F)(F)F)c3)C3C4(OC(C)=O)COC4CC(O)C3(C)C(=O)C(OC)C(=C1C)C2(C)C` (stereo not shown) [SB-T-123005, 2-Debenzoyl-2-(3-trifluromethoxybenzoyl)-10-methyl-3′-dephenyl-3′-(2-methyl-2-propenyl)-docetaxel], the IC50 in data set [3] was determined as 7300 pM; in data set [4] it was 1430 pM; in data set [2] it was 870 pM; in data set [5], 2460 pM.
Take `C=C(C)CC(NC(=O)OC(C)(C)C)C(O)C(=O)OC1CC2(O)C(OC(=O)c3cccc(OC(F)F)c3)C3C4(OC(C)=O)COC4CC(O)C3(C)C(=O)C(OC(=O)OC)C(=C1C)C2(C)C` (stereo not shown) [SB-T-121706]: the IC50 in data set [3] was 150 pM; in the data set on LCC6-WT, 460 pM; in data set [2], 1060 pM; in data set [5] it was 120 pM.
On the same counts, the results for `C=C(C)CC(NC(=O)OC(C)(C)C)C(O)C(=O)OC1CC2(O)C(OC(=O)c3cccc(OC(F)(F)F)c3)C3C4(OC(C)=O)COC4CC(O)C3(C)C(=O)C(OC(=O)CC)C(=C1C)C2(C)C` (stereo not shown) [SB-T-121305, 2-Debenzoyl-2-(3-trifluromethoxybenzoyl)-3′-dephenyl-10-propanoyl-3′-(2-methyl-2-propenyl)-docetaxel] are 1750 pM, 1540 pM, 1120 pM and 1740 pM.
Turning to `C=C(C)C[C@H](NC(=O)OC(C)(C)C)[C@@H](O)C(=O)O[C@H]1C[C@@]2(O)[C@@H](OC(=O)c3cccc(OC(F)F)c3)[C@@H]3[C@]4(OC(C)=O)CO[C@@H]4C[C@H](O)[C@@]3(C)C(=O)[C@H](OC(=O)CC)C(=C1C)C2(C)C` [SB-T-121306, 2-Debenzoyl-2-(3-difluromethoxybenzoyl)-3′-dephenyl-10-propanoyl-3′-(2-methyl-2-propenyl)docetaxel], the IC50 worked out at 170 pM in data set [3], 810 pM in the data set on LCC6-WT, 490 pM in data set [2] and 540 pM in data set [5].
Take `CC(=O)O[C@@]12CO[C@@H]1C[C@H](O)[C@@]1(C)C(=O)[C@H](OC(=O)C3CC3)C3=C(C)[C@@H](OC(=O)[C@H](O)[C@H](C=C(C)C)NC(=O)OC(C)(C)C)C[C@@](O)([C@@H](OC(=O)c4cccc(OC(F)(F)F)c4)[C@H]21)C3(C)C` [SB-T-121405]: the IC50 in data set [3] (Homo sapiens) was 360 pM; in the data set on LCC6-WT, 1010 pM; in data set [4] (Mus musculus), 330 pM; in data set [2] (Homo sapiens), 320 pM; in data set [5] (Homo sapiens), 980 pM.
Regarding `CC(=O)O[C@H]1C(=O)[C@@]2(C)[C@H]([C@H](OC(=O)c3ccccc3)[C@]3(O)C[C@H](OC(=O)[C@H](O)[C@@H](NC(=O)c4ccccc4)c4ccccc4)C(C)=C1C3(C)C)[C@]1(OC(C)=O)CO[C@@H]1C[C@@H]2O` [paclitaxel, reference compound], the IC50 in data set [6] is 361000 pM; in data set [3] (Homo sapiens) it was 68000 pM; in the data set on LCC6-WT, 3100 pM; in data set [1] (Homo sapiens, LCC6MDR), 346000 pM; in data set [4] (Mus musculus), 2020 pM; in data set [2] (Homo sapiens), 3780 pM. This compound also came in with an IC50 in data set [5] (Homo sapiens) of 3130 pM.
Turning to `C=C(C)CC(NC(=O)OC(C)(C)C)C(O)C(=O)OC1CC2(O)C(OC(=O)c3cccc(OC(F)F)c3)C3C4(OC(C)=O)COC4CC(OC)C3(C)C(=O)C(OC)C(=C1C)C2(C)C` (stereo not shown) [SB-T-1230106, 2-Debenzoyl-2-(3-difluromethoxybenzoyl)-7,10-dimethyl-3′-dephenyl-3′-(2-methyl-2-propenyl)-docetaxel], the IC50 in the data set with LCC6-WT was determined as 720 pM; in data set [1], 4700 pM.
As for `C=C(C)CC(NC(=O)OC(C)(C)C)C(O)C(=O)OC1CC2(O)C(OC(=O)c3cccc(OC(F)F)c3)C3C4(OC(C)=O)COC4CC(O)C3(C)C(=O)C(OC(C)=O)C(=C1C)C2(C)C` (stereo not shown) [SB-T-121206, 2-Debenzoyl-2-(3-difluromethoxybenzoyl)-3′-dephenyl-10-acetyl-3′-(2-methyl-2-propenyl)docetaxel], the IC50 was 230 pM in data set [3]; 280 pM in the data set on LCC6-WT; 350 pM in data set [4]; 490 pM in data set [2]; 310 pM in data set [5].
Consider `CC(=O)O[C@@]12CO[C@@H]1C[C@H](O)[C@@]1(C)C(=O)[C@H](OC(=O)C3CC3)C3=C(C)[C@@H](OC(=O)[C@H](O)[C@H](CC(C)C)NC(=O)OC(C)(C)C)C[C@@](O)([C@@H](OC(=O)c4cccc(OC(F)(F)F)c4)[C@H]21)C3(C)C` [SB-T-111405, 2-Debenzoyl-2-(3-trifluromethoxybenzoyl)-3′-dephenyl-10-(cyclopropanecarbonyl)-3′-(2-methylpropyl)docetaxel], for which the half-maximal inhibitory concentration (IC50) amounted to 2300 pM in data set [3] (Homo sapiens); 980 pM in data set [1] (Homo sapiens, LCC6MDR); 280 pM in data set [4] (Mus musculus); 560 pM in data set [2] (Homo sapiens).
`C=C(C)CC(NC(=O)OC(C)(C)C)C(O)C(=O)OC1CC2(O)C(OC(=O)c3cccc(OC(F)(F)F)c3)C3C4(OC(C)=O)COC4CC(O)C3(C)C(=O)C(OC(=O)OC)C(=C1C)C2(C)C` (stereo not shown) [SB-T-121705, 2-Debenzoyl-2-(3-trifluromethoxybenzoyl)-3′-dephenyl-10-(methoxycarbonyl)-3′-(2-methyl-2-propenyl)docetaxel]: the half-inhibitory concentration (IC50) in data set [3] was 800 pM; in the data set on LCC6-WT it was 590 pM; in data set [2] it was 1170 pM; in data set [5] it was 980 pM.
On to `C=C(C)CC(NC(=O)OC(C)(C)C)C(O)C(=O)OC1CC2(O)C(OC(=O)c3cccc(OC(F)(F)F)c3)C3C4(OC(C)=O)COC4CC(O)C3(C)C(=O)C(OC(C)=O)C(=C1C)C2(C)C` (stereo not shown) [SB-T-121205, 2-Debenzoyl-2-(3-trifluromethoxybenzoyl)-3′-dephenyl-10-acetyl-3′-(2-methyl-2-propenyl)docetaxel], for which the half-maximal inhibitory concentration (IC50) in data set [3] is 400 pM; in the data set with LCC6-WT it was 450 pM; in data set [4], 230 pM; in data set [2] it was 760 pM; in data set [5], 230 pM.
For the compound `C=C(C)CC(NC(=O)OC(C)(C)C)C(O)C(=O)OC1CC2(O)C(OC(=O)c3cccc(OC(F)F)c3)C3C4(OC(C)=O)COC4CC(O)C3(C)C(=O)C(OC(=O)C3CC3)C(=C1C)C2(C)C` (stereo not shown) [SB-T-121406, 2-Debenzoyl-2-(3-difluromethoxybenzoyl)-3′-dephenyl-10-cyclopropanecarbonyl-3′-(2-methyl-2-propenyl)docetaxel], the half-maximal inhibitory concentration (IC50) amounted to 310 pM in data set [3], 330 pM in the data set on LCC6-WT, 750 pM in data set [2] and 290 pM in data set [5].
